Source: US11919855B2, “Substituted pyrrolidones and piperidones as small molecule inhibitors of EZH2 and EED protein binding” (Northwestern University, priority 2021, dated 2024)

Target: EED-EZH2 (Homo sapiens (Human), UniProt O75530)
Test: EED-EZH2 AlphaScreen assay
Assay type: binding
Settings: 8.7 nM EZH2, 5.0 nM EED, read-out: IC50 Potency Code
Description: Biological activity of exemplary substituted pyrrolidones and piperidones was determined by the EED-EZH2 AlphaScreen assay according the following methodology.
EZH2 (non-complexed), His-GST-tags
Anti-FLAG AlphaLISA Acceptor Beads
AlphaScreen GSH Donor Beads
Assay Protocol (Calculated for 384 Wells or 1 Plate)
• 1. Thaw EED and EZH2 proteins on ice. • 2. Prepare 1× HMT Buffer 2: • 1.5 mL of 4× HMT Buffer 2+4.5 mL ddH2O. • 3. Prepare 1.2× EED-EZH2 solution in 1× HMT Buffer 2: 3.4 mL total • 2.1 uL of EED (0.41 mg/mL, 8.04 uM, 1:1608 dilution)+14 uL of EZH2 (0.24 mg/mL, 2.11 uM, 1:243 dilution)+3.384 mL of 1× HMT Buffer 2 • 4. Prepare 1.2× EZH2 solution in 1× HMT Buffer 2 (positive control): 0.168 mL total • 0.69 uL of EZH2 (0.24 mg/mL, 2.11 uM, 1:243 dilution)+167 uL of 1× HMT Buffer 2 • 5. Add 10 μL of 1.2× EED-EZH2 or 1.2× EZH2 solution to each well. • 6. Add compounds in DMSO via Echo transfer and 30 nL DMSO for control wells. • 7. Centrifuge at 15,000 rpm for 10 seconds and allow to incubate at rt for 1 hour. Step Two • 1. Prepare 6× Anti-FLAG and GSH Donor beads in 1× HMT Buffer 2 in the dark: 1 mL total • 10 uL of Anti-FLAG (1:100 dilution)+5 uL of GSH Donor (1:200 dilution)+985 uL of 1× HMT Buffer 2 • 2. Add 2 μL of bead solution to each well. • 3. Centrifuge at 15,000 rpm for 10 seconds and allow to incubate at rt for 1 hour in the dark. • 4. Read plate. Final Concentrations: • 12 μL volume per well • 8.7 nM EZH2 • 5.0 nM EED • DMSO<0.5% Calculations: • 1. Average EZH2 only wells (positive control) and subtract from all other wells. • 2. Average EED-EZH2 only wells (negative control) to indicate 100% signal or 0% inhibition. • 3. Normalize each well to the average 100% signal from step 2. • 4. Report either as normalized % inhibition or normalized % signal. • Use GraphPad to Calculate IC50.

Chain of EED-EZH2 (O75530 2-441): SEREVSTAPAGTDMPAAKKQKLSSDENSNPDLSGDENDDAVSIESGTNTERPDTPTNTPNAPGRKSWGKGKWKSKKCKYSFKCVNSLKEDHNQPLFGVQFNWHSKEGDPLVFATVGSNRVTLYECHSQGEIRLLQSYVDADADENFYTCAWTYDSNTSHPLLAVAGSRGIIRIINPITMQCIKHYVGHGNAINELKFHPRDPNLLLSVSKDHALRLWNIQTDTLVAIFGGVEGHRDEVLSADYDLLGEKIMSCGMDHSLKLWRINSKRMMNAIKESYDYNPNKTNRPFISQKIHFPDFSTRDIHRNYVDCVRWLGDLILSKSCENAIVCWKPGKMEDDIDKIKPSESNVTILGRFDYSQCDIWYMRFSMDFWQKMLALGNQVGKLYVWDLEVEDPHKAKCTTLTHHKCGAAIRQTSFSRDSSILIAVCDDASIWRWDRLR

## O=C(NC[C@H]1CCC(=O)N1Cc1cccc(C(F)(F)F)c1)c1cc(C(F)(F)F)ccc1O [NUCC-0226242]
  IC50: 1000 to 10000 nM

## O=C(NC[C@H]1CC(=O)N(Cc2cccc(F)c2)C1)c1cc(C(F)(F)F)ccc1O [NUCC-0226243]
  IC50: < 1000 nM

## O=C(NC[C@@H]1CC(=O)N(Cc2cccc(C(F)(F)F)c2)C1)c1cc(C(F)(F)F)ccc1O [NUCC-0226244]
  IC50: < 1000 nM

## O=C(N[C@@H]1CCN(Cc2cccc(C(F)(F)F)c2)C1=O)c1cc(C(F)(F)F)ccc1O [NUCC-0226245]
  IC50: 1000 to 10000 nM
